Assay results as given in patent publication US20250179031A1, “PROTEASOME ENHANCERS AND USES THEREOF” (Board of Trustees of Michigan State University, priority 2022, published 2025).

Tests used:
Assay type in all cases: biochemical
[1] = test system: T1, human 20S proteasome; assay: Fluorogenic peptide degradation 20S proteasome activity assay, combination of CT-L, T-L and Casp-L substrates; conditions: for Fold increase over vehicle (30 μM), enhancement of 20S activity: 30 μM compound, mixture of the three substrates, 15 min pre-treatment at 37° C., 1 h read; for concentration at which 20S activity was doubled in the combination (in words) / AC200 (concentration at which 20S activity was doubled), Combo / Max Fold, Combo: combination of the three substrates; for AC200 (concentration at which 20S activity was doubled), Combo / Max Fold, Combo: 1.25-40 μM titration
T1 construct: purchased Boston Biochem, Inc. (Cambridge, MA)
Procedure: (§1) Activity assays were carried out in a 100 μL reaction volume. Different concentrations (40-1.25 μM) of test compounds (1 μL) were added to a black flat/clear bottom 96-well plate containing 2 nM of human constitutive 20S proteasome ([…]), in 50 mM Tris-HCl at pH 7.8, 100 mM NaCl and allowed to incubate for 15 min at 37° C. Fluorogenic substrates (5 μL) were then added and the enzymatic activity measured at 37° C. on a SpectraMax M5e spectrometer by measuring the change in fluorescence unit per minute for 1 hour at 380-460 nm. The fluorescence units for the vehicle control were set at a 100%, and the ratio of drug-treated sample set to that of vehicle control was used to calculate the fold change in enzymatic activity. The fluorogenic substrates used were one of the following: Suc-LLVY-AMC (CT-L activity, 20 μM), Z-LLE-AMC (Casp-L activity, 20 μM), Boc-LRR-AMC (Trp-L activity, 40 μM) or a combination of the three substrates each at 6.67 μM. Results were analysed and plotted using GraphPad Prism 7.
(§2) Screening of this library of dihydroquinazolines was performed in two stages. In the first stage, each compound was screened at three concentrations (3, 10 and 30 μM) to select lead agents. Secondly, lead agents were further analyzed using full concentration responses (6-point titration ranging from 1.25 μM-40 μM) for each of the three proteolytic activities of the 20S proteasome and a combination thereof. The proteolytic activity of the 20S proteasome can be monitored in vitro by measuring the cleavage of fluorogenic peptide substrates for the different catalytic sites as an increase in 7-amino-4-methycoumarin (AMC) fluorescence overtime. A combination of chymotrypsin-like (CT-L, Suc-LLVY-AMC), tryptic-like (T-L, Boc-LRR-AMC) and caspase-like (Casp-L, Z-LLE-AMC) peptide substrates were used in equal amounts to screen compounds for overall 20S activity.
Pure human 20S proteasome was pre-treated with 3, 10 or 30 μM of one of the analogues or DMSO (vehicle control) for 15 min at 37° C. To each sample was then added a mixture of the three substrates (13.3 μM each). The release of AMC was monitored as fluorescence overtime for 1 h and the resulting 20S activity changes were determined by comparing to the untreated 20S and calculating the fold-increase in activity for each analogue at a given concentration (Table 1, 30 μM).
(§3) After analyzing the results in Table 1, three of the most promising analogues were selected for further studies into their 20S activity. Compounds 10, 2 and 18 were selected to be carried forward based on their fold increase and the highest Max-Fold activities. […] These compounds were then tested to obtain a full concentration—response (FIG. 1) of their activities towards the 20S proteasome using each of the three substrates for the three catalytic sites individually and the combination of the three substrates. This was done to ensure that each of the selected compounds activate the 20S proteasome at all three catalytic sites, which is critical for effective IDP degradation, as these proteins are likely to contain multiple cleavage sites for each.
(§4) Using the data in FIG. 1, the concentration at which 20S activity was doubled (AC200) was calculated for each compound using each substrate and the combination of the three substrates (Table 2).

[2] = test system: T2, human 20S proteasome, chymotrypsin-like (CT-L) site; assay: Fluorogenic peptide degradation 20S proteasome activity assay, Suc-LLVY-AMC (CT-L activity); conditions: Suc-LLVY-AMC substrate
T2 construct: purchased Boston Biochem, Inc. (Cambridge, MA)
Procedure: as §1, §2, §3, §4

[3] = test system: T3, human 20S proteasome, caspase-like (Casp-L) site; assay: Fluorogenic peptide degradation 20S proteasome activity assay, Z-LLE-AMC (Casp-L activity); conditions: Z-LLE-AMC substrate
T3 construct: purchased Boston Biochem, Inc. (Cambridge, MA)
Procedure: as §1, §2, §3, §4

[4] = test system: T4, human 20S proteasome, tryptic-like (T-L) site; assay: Fluorogenic peptide degradation 20S proteasome activity assay, Boc-LRR-AMC (T-L activity); conditions: Boc-LRR-AMC substrate
T4 construct: purchased Boston Biochem, Inc. (Cambridge, MA)
Procedure: as §1, §2, §3, §4

[5] = test system: T5, human 20S proteasome (α-synuclein substrate); assay: In vitro purified α-synuclein degradation assay (silver stain); conditions: pure human α-synuclein, 4 h at 37° C., silver stain quantified
T5 construct: purchased Boston Biochem, Inc. (Cambridge, MA)
Procedure: Representative silver stain of these alpha-synuclein digestions and quantification of three trials. 20S proteasome subunits were used as a loading control in the quantification (right). […] Error bars denote standard deviation. Ordinary one-way ANOVA statistical analysis was used to determine statistical significance (ns=not significant, *p<0.05, **p<0.01, […], and ****p<0.00001).
In vitro purified α-synuclein degradation assay. Digestion of α-synuclein was carried out in a 50 μL reaction volume made of 50 mM Tris and 100 mM NaCl at pH 7.8; 0.5 μM purified α-synuclein and 6.7 nM purified human 20S proteasome. Briefly, 20S proteasome was diluted to 7.58 nM in the reaction buffer. Test compounds or vehicle (1 μL of 50× stock or DMSO) were added to 44 μL of 7.58 nM 20S and incubated at 37° C. for 20 min. 5 μL of 5 μM α-synuclein substrate was then added to the reaction mixture and incubated at 37° C. for 4 hours. The reactions were quenched with concentrated sodium dodecyl sulfate (SDS) loading buffer. After boiling for 10 min, samples were resolved on a 4-20% Tris-glycine SDS-PAGE gel. The gels were then stained using a Pierce Silver Stain Kit (Thermo Scientific, Rockford IL) and the provided procedure. Silver stained gels were then quantified using ImageJ. […]

c1ccc(CN2C(c3ccccc3)=Nc3ccccc3C2c2ccccc2)cc1 (stereo not drawn) [Compound 1, 3-Benzyl-2,4-diphenyl-3,4-dihydroquinazoline]
Fold increase over vehicle (30 μM), enhancement of 20S activity [1]: 4 fold

COc1ccc2c(c1)N=C(c1ccccc1)N(Cc1ccccc1)C2c1ccccc1 (stereo not drawn) [Compound 2]
Fold increase over vehicle (30 μM), enhancement of 20S activity [1]: 7.9 fold | concentration at which 20S activity was doubled in the combination (in words) [1]: low μM concentrations | AC200 (concentration at which 20S activity was doubled), Combo [1]: 2.0 µM | Max Fold, Combo [1]: 10.1 fold | AC200, CT-L [2]: 12.9 µM | Max Fold, CT-L [2]: 5.6 fold | AC200, Casp-L [3]: 5.6 µM | Max Fold, Casp-L [3]: 13.4 fold | AC200, T-L [4]: 5.0 µM | Max Fold, T-L [4]: 11.7 fold

Cc1ccc2c(c1)N=C(c1ccccc1)N(Cc1ccccc1)C2c1ccccc1 (stereo not drawn) [Compound 3, 3-Benzyl-7-methyl-2,4-diphenyl-3,4-dihydroquinazoline]
Fold increase over vehicle (30 μM), enhancement of 20S activity [1]: 8.1 fold

CCCCCc1ccc2c(c1)N=C(c1ccccc1)N(Cc1ccccc1)C2c1ccccc1 (stereo not drawn) [Compound 4, 3-Benzyl-7-pentyl-2,4-diphenyl-3,4-dihydroquinazoline]
Fold increase over vehicle (30 μM), enhancement of 20S activity [1]: 2.8 fold

COc1ccc2c(c1)N=C(C1CCCCC1)N(Cc1ccccc1)C2c1ccccc1 (stereo not drawn) [Compound 5, 3-Benzyl-2-cyclohexyl-7-methoxy-4-phenyl-3,4-dihydroquinazoline]
Fold increase over vehicle (30 μM), enhancement of 20S activity [1]: 6.5 fold

COc1ccc2c(c1)N=C(C1CC1)N(Cc1ccccc1)C2c1ccccc1 (stereo not drawn) [Compound 6]
Fold increase over vehicle (30 μM), enhancement of 20S activity [1]: 2.7 fold

COc1ccc2c(c1)N=C(C(C)C)N(Cc1ccccc1)C2c1ccccc1 (stereo not drawn) [Compound 7]
Fold increase over vehicle (30 μM), enhancement of 20S activity [1]: 2.3 fold

CCCCCC1=Nc2cc(OC)ccc2C(c2ccccc2)N1Cc1ccccc1 (stereo not drawn) [Compound 8]
Fold increase over vehicle (30 μM), enhancement of 20S activity [1]: 2.8 fold

COc1ccc2c(c1)N=C(C)N(Cc1ccccc1)C2c1ccccc1 (stereo not drawn) [Compound 9]
Fold increase over vehicle (30 μM), enhancement of 20S activity [1]: 1.8 fold

COc1ccc2c(c1)N=C(c1ccccc1)N(c1ccccc1)C2c1ccccc1 (stereo not drawn) [Compound 10]
Fold increase over vehicle (30 μM), enhancement of 20S activity [1]: 9.5 fold | concentration at which 20S activity was doubled in the combination (in words) [1]: low μM concentrations | Max Fold, Combo [1]: 11.1 fold | AC200, CT-L [2]: 8.1 µM | Max Fold, CT-L [2]: 6.7 fold | AC200, Casp-L [3]: 5.8 µM | Max Fold, Casp-L [3]: 15.3 fold | AC200, T-L [4]: 2.5 µM | Max Fold, T-L [4]: 15.0 fold

COc1ccc2c(c1)N=C(c1ccccc1)N(c1ccccn1)C2c1ccccc1 (stereo not drawn) [Compound 11, 7-Methoxy-2,4-diphenyl-3-(2-pyridyl)-3,4-dihydroquinazoline]
Fold increase over vehicle (30 μM), enhancement of 20S activity [1]: 6.9 fold

COc1ccc2c(c1)N=C(c1ccccc1)N(c1cccnc1)C2c1ccccc1 (stereo not drawn) [Compound 12]
Fold increase over vehicle (30 μM), enhancement of 20S activity [1]: 5.9 fold

COc1ccc2c(c1)N=C(c1ccccc1)N(c1cccc3cccnc13)C2c1ccccc1 (stereo not drawn) [Compound 13, 7-Methoxy-2,4-diphenyl-3-(8-quinolyl)-3,4-dihydroquinazoline]
Fold increase over vehicle (30 μM), enhancement of 20S activity [1]: 5.3 fold

COc1ccc2c(c1)N=C(c1ccccc1)N(Cc1ccccn1)C2c1ccccc1 (stereo not drawn) [Compound 14, 7-Methoxy-2,4-diphenyl-3-[(2-pyridyl)methyl]-3,4-dihydroquinazoline]
Fold increase over vehicle (30 μM), enhancement of 20S activity [1]: 2 fold

COc1ccc2c(c1)N=C(c1ccccc1)N(CCc1ccccn1)C2c1ccccc1 (stereo not drawn) [Compound 15, 7-Methoxy-2,4-diphenyl-3-[2-(2-pyridyl)ethyl]-3,4-dihydroquinazoline]
Fold increase over vehicle (30 μM), enhancement of 20S activity [1]: 2.8 fold

COc1ccc2c(c1)N=C(c1ccccc1)N(C1CCCCC1)C2c1ccccc1 (stereo not drawn) [Compound 16, 3-Cyclohexyl-7-methoxy-2,4-diphenyl-3,4-dihydroquinazoline]
Fold increase over vehicle (30 μM), enhancement of 20S activity [1]: 6.7 fold

COc1ccc2c(c1)N=C(c1ccccc1)N(C1CCN(C)CC1)C2c1ccccc1 (stereo not drawn) [Compound 17, 7-Methoxy-3-(1-methyl-4-piperidyl)-2,4-diphenyl-3,4-dihydroquinazoline]
Fold increase over vehicle (30 μM), enhancement of 20S activity [1]: 1 fold | Max Fold, Combo [1]: 1.4 fold | activity towards the 20S (in words) ([1]; screen of Table 1): no discemible activity towards the 20S | Max Fold, CT-L [2]: 1.1 fold | Max Fold, Casp-L [3]: 0.8 fold | Max Fold, T-L [4]: 1.0 fold

COc1ccc2c(c1)N=C(c1ccccc1)N(C1CCN(Cc3ccccc3)CC1)C2c1ccccc1 (stereo not drawn) [Compound 18]
Fold increase over vehicle (30 μM), enhancement of 20S activity [1]: 7 fold | concentration at which 20S activity was doubled in the combination (in words) [1]: low μM concentrations | AC200 (concentration at which 20S activity was doubled), Combo [1]: 1.3 µM | Max Fold, Combo [1]: 5.5 fold | AC200, CT-L [2]: 10.5 µM | Max Fold, CT-L [2]: 3.8 fold | AC200, Casp-L [3]: 2.8 µM | Max Fold, Casp-L [3]: 10.6 fold | AC200, T-L [4]: 1.7 µM | Max Fold, T-L [4]: 8.7 fold | 20S-mediated degradation of α-synuclein (in words) [5]: effectively enhanced the rate of degradation of α-synuclein by the 20S in vitro in a concentration dependent manner

COc1ccc2c(c1)N=C(c1ccccc1)N(CC1CCN(C)CC1)C2c1ccccc1 (stereo not drawn) [Compound 19, 7-Methoxy-3-[(1-methyl-4-piperidyl)methyl]-2,4-diphenyl-3,4-dihydroquinazoline]
Fold increase over vehicle (30 μM), enhancement of 20S activity [1]: 1.2 fold

COc1ccc2c(c1)N=C(c1ccccc1)N(CC1CCOCC1)C2c1ccccc1 (stereo not drawn) [Compound 20, 7-Methoxy-2,4-diphenyl-3-[(tetrahydro-2H-pyran-4-yl)methyl]-3,4-dihydroquinazoline]
Fold increase over vehicle (30 μM), enhancement of 20S activity [1]: 1.6 fold

COc1ccc2c(c1)N=C(c1ccccc1)N(CC1CCCCC1)C2c1ccccc1 (stereo not drawn) [Compound 21, 3-(Cyclohexylmethyl)-7-methoxy-2,4-diphenyl-3,4-dihydroquinazoline]
Fold increase over vehicle (30 μM), enhancement of 20S activity [1]: 8.2 fold

COc1ccc2c(c1)N=C(c1ccccc1)N(CC#N)C2c1ccccc1 (stereo not drawn) [Compound 22, (7-Methoxy-2,4-diphenyl-3,4-dihydroquinazolin-3-yl)acetonitrile]
Fold increase over vehicle (30 μM), enhancement of 20S activity [1]: 2.7 fold

C=CCN1C(c2ccccc2)=Nc2cc(OC)ccc2C1c1ccccc1 (stereo not drawn) [Compound 23]
Fold increase over vehicle (30 μM), enhancement of 20S activity [1]: 2.3 fold

CCCCCCN1C(c2ccccc2)=Nc2cc(OC)ccc2C1c1ccccc1 (stereo not drawn) [Compound 24]
Fold increase over vehicle (30 μM), enhancement of 20S activity [1]: 1.6 fold

CC(C)C[C@H](NC(=O)[C@H](Cc1ccccc1)NC(=O)c1cnccn1)B(O)O [bortezomib, reference compound]
20S-mediated degradation of α-synuclein (in words) [5]: prevented α-synuclein degradation
